This assay has as its target T1, human full-length MKNK1 (Homo sapiens, UniProt Q9BUB5, T385D).
T1 construct: GST (N); purchased Carna Biosciences 02-145; host or cells: insect cells (baculovirus expression system)
The assay can be described thus: MKNK1 kinase high ATP assay (TR-FRET). In kind it is biochemical. As to conditions: for IC50: read-out: MKNK1 IC50; for Activity Ratio MKNK1: ratio of the IC50 values of the two enantiomers. The method, boiled down:
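Full-length human MKNK1 (T385D) preincubated 15 min at 22 °C with compound in HEPES pH 7.5/MgCl2/DTT buffer; reaction with 2 mM ATP (final) and 0.06 μM biotinylated peptide (final), 30 min at 22 °C.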
For orientation: In TR-FRET formats the signal depends on donor and acceptor labels being close together.

[1] abbreviates: Table 3, example numbers of WO2013/174744(A1), not of this patent, pure enantiomer from chiral HPLC, absolute configuration at amide 'R or S'.
Setting [2] is: Table 3, example numbers of WO2013/174744(A1), not of this patent, pure enantiomer from chiral HPLC, absolute configuration at amide 'S or R'.
The mark [3] stands for this setting: Table 3, example numbers of WO2013/174744(A1).
The mark [4] stands for this setting: Table 1, MKNK1 kinase high ATP assay, 2 mM ATP.

Like-named read-outs stand apart in the source and are kept apart here.

T1 sequence (Q9BUB5 1-424 isoform Q9BUB5-2 T344D): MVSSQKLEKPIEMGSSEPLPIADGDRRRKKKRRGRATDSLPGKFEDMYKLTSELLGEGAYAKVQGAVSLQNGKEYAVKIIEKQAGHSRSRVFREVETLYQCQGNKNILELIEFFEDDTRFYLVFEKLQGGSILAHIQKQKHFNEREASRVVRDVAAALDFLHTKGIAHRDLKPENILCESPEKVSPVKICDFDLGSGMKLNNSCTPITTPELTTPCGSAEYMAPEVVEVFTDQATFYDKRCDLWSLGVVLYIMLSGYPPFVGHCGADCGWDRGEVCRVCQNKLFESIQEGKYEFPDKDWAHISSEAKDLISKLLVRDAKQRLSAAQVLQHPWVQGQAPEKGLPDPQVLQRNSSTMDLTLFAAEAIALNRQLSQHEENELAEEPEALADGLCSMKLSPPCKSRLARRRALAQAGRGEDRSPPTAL

Turning to “(7S)—N-Ethyl-4-(1H-indazol-5-ylamino)-N-methyl-5,6,7,8-tetrahydro[1]benzothieno[2,3-d]pyrimidine-7-carboxamide [Example 4]”, the 50% inhibitory concentration (IC50) (as a rule, the concentration that gives 50% inhibition) reads like this: under setting [1], 11.7 nM; under setting [2], 6.5 nM. Moreover, the “Activity Ratio MKNK1” value under setting [3] was found to be 1.8.
`C[C@@H]1CN(C(=O)[C@H]2CCc3c(sc4ncnc(Nc5cc6cn[nH]c6cc5N5CCCC5)c34)C2)C[C@H](C)O1` [Example 183, [(2R,6S)-2,6-Dimethylmorpholin-4-yl][(7S)-4-{[6-(pyrrolidin-1-yl)-1H-indazol-5-yl]amino}-5,6,7,8-tetrahydro[1]benzothieno[2,3-d]pyrimidin-7-yl]methanone]: the IC50 under setting [4] came to 0.7 nM.
Still for that read-out and setting: the value for `CN(C)C(=O)[C@H]1CCc2c(sc3ncnc(Nc4cc5cn[nH]c5cc4OCCNCC(C)(C)C)c23)C1` [Example 275, (7S)-4-[(6-{2-[(2,2-Dimethylpropyl)amino]ethoxy}-1H-indazol-5-yl)amino]-N,N-dimethyl-5,6,7,8-tetrahydro[1]benzothieno[2,3-d]pyrimidine-7-carboxamide] was 4.4 nM; that for `C[C@@H]1COCCN1C(=O)[C@H]1CCc2c(sc3ncnc(Nc4cc5cn[nH]c5cc4OCCN)c23)C1` [Example 130, [(7S)-4-{[6-(2-Aminoethoxy)-1H-indazol-5-yl]amino}-5,6,7,8-tetrahydro[1]benzothieno[2,3-d]pyrimidin-7-yl][(3R)-3-methylmorpholin-4-yl]methanone] was 0.9 nM.
With `CN(C)C(=O)[C@H]1CCc2c(sc3ncnc(Nc4cc5cn[nH]c5cc4OCCNC(=O)OC(C)(C)C)c23)C1` [Example 165, tert-butyl {2-[(5-{[(7S)-7-(dimethylcarbamoyl)-5,6,7,8-tetrahydro[1]benzothieno[2,3-d]pyrimidin-4-yl]amino}-1H-indazol-6-yl)oxy]ethyl}carbamate], the IC50 under setting [4] is 0.2 nM.
Regarding `CCN(C)C(=O)[C@@H]1CCc2c(sc3ncnc(Nc4cc5cn[nH]c5cc4OC)c23)C1` [Example 25, (7R)—N-Ethyl-4-[(6-methoxy-1H-indazol-5-yl)amino]-N-methyl-5,6,7,8-tetrahydro[1]benzothieno[2,3-d]pyrimidine-7-carboxamide], the IC50 under setting [4] stood at 8.3 nM.
On the same count and under the same terms, the figure for `CCCOc1cc2[nH]ncc2cc1Nc1ncnc2sc3c(c12)CC[C@H](C(=O)N1CC(C)(O)C1)C3` [Example 95, (3-Hydroxy-3-methylazetidin-1-yl){(7S)-4-[(6-propoxy-1H-indazol-5-yl)amino]-5,6,7,8-tetrahydro[1]benzothieno[2,3-d]pyrimidin-7-yl}methanone] is 2.3 nM.
Still for that read-out and setting: the figure for `CCCSc1cc2[nH]ncc2cc1Nc1ncnc2sc3c(c12)CC[C@H](C(=O)N(C)C)C3` [Example 192, (7S)—N,N-Dimethyl-4-{[6-(propylsulfanyl)-1H-indazol-5-yl]amino}-5,6,7,8-tetrahydro[1]benzothieno[2,3-d]pyrimidine-7-carboxamide] is 2.2 nM; for `O=C([C@H]1CCc2c(sc3ncnc(Nc4ccc5[nH]ncc5c4)c23)C1)N1CCC1` [Example 3, Azetidin-1-yl[(7S)-4-(1H-indazol-5-ylamino)-5,6,7,8-tetrahydro[1]benzothieno[2,3-d]pyrimidin-7-yl]methanone] it is 11 nM.
In the case of `CCOc1cc2[nH]ncc2cc1Nc1ncnc2sc3c(c12)CC[C@H](C(=O)N(C)CCC(F)(F)F)C3` [Example 66, (7S)-4-[(6-Ethoxy-1H-indazol-5-yl)amino]-N-methyl-N-(3,3,3-trifluoropropyl)-5,6,7,8-tetrahydro[1]benzothieno[2,3-d]pyrimidine-7-carboxamide], the IC50 reads like this: under setting [4], 0.4 nM; under setting [1], 1.7 nM; under setting [2], 0.9 nM. Moreover, under setting [3], the “Activity Ratio MKNK1” value is listed as 1.9.
Turning to `CN(C)C(=O)[C@@H]1CCc2c(sc3ncnc(Nc4ccc5[nH]ncc5c4)c23)C1` [Example 2, (7R)-4-(1H-Indazol-5-ylamino)-N,N-dimethyl-5,6,7,8-tetrahydro[1]benzothieno[2,3-d]pyrimidine-7-carboxamide], the IC50 under setting [4] was 118 nM.
Still for that read-out and setting: the value for `CN(C)C(=O)[C@H]1CCc2c(sc3ncnc(Nc4cc5cn[nH]c5cc4F)c23)C1` [Example 228, (7S)-4-[(6-Fluoro-1H-indazol-5-yl)amino]-N,N-dimethyl-5,6,7,8-tetrahydro[1]benzothieno[2,3-d]pyrimidine-7-carboxamide] was 6.1 nM.
With `COc1cc2[nH]ncc2cc1Nc1ncnc2sc3c(c12)CC[C@H](C(=O)N1CCN(C)CC1)C3` [Example 48, {(7S)-4-[(6-Methoxy-1H-indazol-5-yl)amino]-5,6,7,8-tetrahydro[1]benzothieno[2,3-d]pyrimidin-7-yl}(4-methylpiperazin-1-yl)methanone], the IC50 under setting [4] worked out at 0.4 nM.
Take `CN(C)C(=O)[C@H]1CCc2c(sc3ncnc(Nc4cc5cn[nH]c5cc4Cl)c23)C1` [Example 182, (7S)-4-[(6-Chloro-1H-indazol-5-yl)amino]-N,N-dimethyl-5,6,7,8-tetrahydro[1]benzothieno[2,3-d]pyrimidine-7-carboxamide]: the IC50 under setting [4] was 5.3 nM.
For `COc1cc2[nH]ncc2cc1Nc1ncnc2sc3c(c12)CC[C@H](C(=O)N(C)CC(=O)N(C)C)C3` [Example 52, (7S)—N-[2-(Dimethylamino)-2-oxoethyl]-4-[(6-methoxy-1H-indazol-5-yl)amino]-N-methyl-5,6,7,8-tetrahydro[1]benzothieno[2,3-d]pyrimidine-7-carboxamide], under setting [4], the IC50 is 0.2 nM.
`COc1cc2[nH]ncc2cc1Nc1ncnc2sc3c(c12)CC[C@H](C(=O)N1CC(N(C)C)C1)C3` [Example 44, [3-(Dimethylamino)azetidin-1-yl]{(7S)-4-[(6-methoxy-1H-indazol-5-yl)amino]-5,6,7,8-tetrahydro[1]benzothieno[2,3-d]pyrimidin-7-yl}methanone]: the IC50 under setting [4] came to 0.2 nM.
Turning to `C[C@H](CN)Oc1cc2[nH]ncc2cc1Nc1ncnc2sc3c(c12)CC[C@H](C(=O)N(C)C)C3` [Example 152, (7S)-4-[(6-{[(2R)-1-Aminopropan-2-yl]oxy}-1H-indazol-5-yl)amino]-N,N-dimethyl-5,6,7,8-tetrahydro[1]benzothieno[2,3-d]pyrimidine-7-carboxamide], the IC50 under setting [4] was determined as 0.6 nM.
Take `CSc1cc2[nH]ncc2cc1Nc1ncnc2sc3c(c12)CC[C@H](C(=O)N(C)C)C3` [Example 106, (7S)—N,N-Dimethyl-4-{[6-(methylsulfanyl)-1H-indazol-5-yl]amino}-5,6,7,8-tetrahydro[1]benzothieno[2,3-d]pyrimidine-7-carboxamide]: the IC50 under setting [4] is 4.6 nM.
`COc1cc2[nH]ncc2cc1Nc1ncnc2sc3c(c12)CC[C@H](C(=O)N1CCOCC1)C3` [Example 28, {(7S)-4-[(6-Methoxy-1H-indazol-5-yl)amino]-5,6,7,8-tetrahydro[1]benzothieno[2,3-d]pyrimidin-7-yl}(morpholin-4-yl)methanone]: the IC50 under setting [4] amounted to 0.3 nM. Where the note is “Table 2, ratio of the IC50-value of an R-enantiomer and its corresponding S-enantiomer”, the “Activity-Ratio MKNK1” value worked out at 26.1.
Consider `CC(C)Oc1cc2[nH]ncc2cc1Nc1ncnc2sc3c(c12)CC[C@H](C(=O)N1C[C@H](O)[C@@H](O)C1)C3` [Example 92, [(3S,4S)-3,4-Dihydroxypyrrolidin-1-yl][(7S)-4-{[6-(propan-2-yloxy)-1H-indazol-5-yl]amino}-5,6,7,8-tetrahydro[1]benzothieno[2,3-d]pyrimidin-7-yl]methanone], for which, under setting [4], the IC50 is 0.2 nM.
On to `COc1cc2[nH]ncc2cc1Nc1ncnc2sc3c(c12)CC[C@H](C(=O)N1CCC(N(C)C)CC1)C3` [Example 46, [4-(Dimethylamino)piperidin-1-yl]{(7S)-4-[(6-methoxy-1H-indazol-5-yl)amino]-5,6,7,8-tetrahydro[1]benzothieno[2,3-d]pyrimidin-7-yl}methanone], for which the IC50 under setting [4] came out at 0.1 nM.
Regarding `C[C@H](CNC(=O)OC(C)(C)C)Oc1cc2[nH]ncc2cc1Nc1ncnc2sc3c(c12)CC[C@H](C(=O)N(C)C)C3` [Example 259, tert-Butyl {(2R)-2-[(5-{[(7S)-7-(dimethylcarbamoyl)-5,6,7,8-tetrahydro[1]benzothieno[2,3-d]pyrimidin-4-yl]amino}-1H-indazol-6-yl)oxy]propyl}carbamate], the IC50 under setting [4] stood at 14.5 nM.
Take `CC(C)Oc1cc2[nH]ncc2cc1Nc1ncnc2sc3c(c12)CC[C@H](C(=O)N(C)CCC(F)(F)F)C3` [Example 125, (7S)—N-Methyl-4-{[6-(propan-2-yloxy)-1H-indazol-5-yl]amino}-N-(3,3,3-trifluoropropyl)-5,6,7,8-tetrahydro[1]benzothieno[2,3-d]pyrimidine-7-carboxamide]: under setting [4], the IC50 worked out at 0.4 nM.
With `CC(C)(C)COc1cc2[nH]ncc2cc1Nc1ncnc2sc3c(c12)CC[C@H](C(=O)N1CCOCC1)C3` [Example 279, [(7S)-4-{[6-(2,2-Dimethylpropoxy)-1H-indazol-5-yl]amino}-5,6,7,8-tetrahydro[1]benzothieno[2,3-d]pyrimidin-7-yl](morpholin-4-yl)methanone], the IC50 under setting [4] is 84.2 nM.
`CN(CC(C)(C)O)C(=O)[C@H]1CCc2c(sc3ncnc(Nc4ccc5[nH]ncc5c4)c23)C1` [Example 18, (7S)—N-(2-Hydroxy-2-methylpropyl)-4-(1H-indazol-5-ylamino)-N-methyl-5,6,7,8-tetrahydro[1]benzothieno[2,3-d]pyrimidine-7-carboxamide]: the 50% inhibitory concentration (IC50) under setting [4] stood at 3.9 nM.
Consider `COc1cc2[nH]ncc2cc1Nc1ncnc2sc3c(c12)CC[C@H](C(=O)N(C)C[C@@H](C)OC)C3` [Example 281, (7S)-4-[(6-Methoxy-1H-indazol-5-yl)amino]-N-[(2R)-2-methoxypropyl]-N-methyl-5,6,7,8-tetrahydro[1]benzothieno[2,3-d]pyrimidine-7-carboxamide], for which the IC50 under setting [4] was 0.8 nM.

The values are drawn from patent US20160297833A1, “THIENOPYRIMIDINES AS MKNK1 AND MKNK2 INHIBITORS” (BAYER PHARMA AKTIENGESELLSCHAFT, priority 2013, published 2016).
